Measured values as given in PubChem BioAssay (NCI).
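Interpolation was linear, between the two tested concentrations surrounding the appropriate level; five concentrations were tested over 48 hours in 96-well plates. At the TGI there is no net growth.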

Columns and labels:
Experiment in all cases: NCI anticancer screen, dose series, 48 h
OVCAR-4 ovarian = tested on: OVCAR-4 ovarian
ACHN renal = tested on: ACHN renal
DMS 273 small cell lung = tested on: DMS 273 small cell lung
SN12C renal = tested on: SN12C renal
EKVX NSCLC = tested on: EKVX NSCLC
NCI-H226 lung = tested on: NCI-H226 lung
KM12 colon = tested on: KM12 colon
786-0 renal = tested on: 786-0 renal
HCC-2998 colon = tested on: HCC-2998 colon
TK-10 renal = tested on: TK-10 renal
RPMI-8226 leukemia = tested on: RPMI-8226 leukemia
SF-295 CNS = tested on: SF-295 CNS
HCT-116 colon = tested on: HCT-116 colon
SNB-78 CNS = tested on: SNB-78 CNS
SK-MEL-5 melanoma = tested on: SK-MEL-5 melanoma
HL-60(TB) leukemia = tested on: HL-60(TB) leukemia
MDA-MB-435 = tested on: MDA-MB-435
PC-3 prostate = tested on: PC-3 prostate
MDA-N = tested on: MDA-N
T-47D breast = tested on: T-47D breast

Compound	TGI (OVCAR-4 ovarian) [µM]	TGI (ACHN renal) [µM]	TGI (DMS 273 small cell lung) [µM]	TGI (SN12C renal) [µM]	TGI (EKVX NSCLC) [µM]	TGI (NCI-H226 lung) [µM]	TGI (KM12 colon) [µM]	TGI (786-0 renal) [µM]	TGI (HCC-2998 colon) [µM]	TGI (TK-10 renal) [µM]	TGI (RPMI-8226 leukemia) [µM]	TGI (SF-295 CNS) [µM]	TGI (HCT-116 colon) [µM]	TGI (SNB-78 CNS) [µM]	TGI (SK-MEL-5 melanoma) [µM]	TGI (HL-60(TB) leukemia) [µM]	TGI (MDA-MB-435) [µM]	TGI (PC-3 prostate) [µM]	TGI (MDA-N) [µM]	TGI (T-47D breast) [µM]
COc1ccc(Cc2c(=O)[nH]nc3ccccc23)cc1	> 100	> 100	> 100	> 100	> 100	> 100	> 100	> 100	> 100	> 100	> 100	> 100	> 100	> 100	> 100	–	–	–	–	–
N#CC1=C(c2ccccc2)C(=C2Nc3ccccc3N2)C2S/C(=C\c3ccccc3)C(=O)N2C1=N (stereo not drawn)	6.4	10.1	4.9	11.4	5.2	3.73	15.1	6.09	13.3	4.78	–	6.21	10.9	6.86	3.3	6.53	–	–	–	–
CN(C)CCCNC(=O)CCNC(=O)c1cc(NC(=O)c2cc(NC(=O)c3cc(NC(=O)c4nccn4C)cn3C)cn2C)cn1C	> 20.3	> 100	–	> 100	> 100	> 100	> 100	> 100	> 100	> 100	> 100	> 100	> 100	–	> 100	> 100	> 100	> 100	> 100	97.4
C=C1CCCC(C)(C)C1CCC1(C)CCC(C(C)C(=O)OC)OO1 (stereo not drawn)	17.4	2.75	–	8.4	21.8	> 25	2.84	0.76	11.5	7.72	25	10.2	> 25	–	> 25	9.16	7.59	7.56	7.39	11.7
Cn1c(=O)c2c(nc3sc4c(n32)C(=O)c2c(O)ccc(O)c2C4=O)n(C)c1=O	2.92	8.33	–	3.93	33.8	> 100	11.6	4.37	17.5	15.2	2.04	> 100	4.68	–	8.35	2.83	15.5	26.7	4.1	7.6
Clc1ccc(CCn2cncn2)cc1	> 100	> 100	> 100	> 100	–	> 100	> 100	> 100	–	> 100	> 100	> 100	> 100	> 100	> 100	> 100	–	–	–	–
NC(=O)c1ncn(C2OC(CO)C(O)C2O)c1NC=O (stereo not drawn)	> 100	> 100	–	> 100	> 100	> 100	> 100	> 100	> 100	> 100	> 100	> 100	> 100	–	> 100	> 100	> 100	> 100	> 100	> 100
N#Cc1ccc(CSC2=C(c3ccc(Cl)cc3)S/C(=C3\SC(SCc4ccc(C#N)cc4)=C(c4ccc(Cl)cc4)S3)S2)cc1	> 100	> 100	–	> 100	> 100	> 100	> 100	> 100	> 100	> 100	> 100	> 100	> 100	–	> 100	> 100	> 100	> 100	> 100	> 100
C=C(C)[C@@]1(O)CCCC[C@@H]1CC(Sc1ccccc1)Sc1ccccc1	29.1	> 100	–	32.4	28.7	32.1	35.1	39.9	32.4	30	33.9	32.8	30.2	–	29.5	78.4	33	34.8	47.8	29
COC(=O)C1=C(OC(=O)c2ccccc2)C(C(=O)OC)[C@@]2(O)[C@@H](C(=O)OC)[C@H](C)C[C@@H]1[C@@H]2C(=O)OC (stereo partly drawn)	> 100	> 100	–	> 100	> 100	> 100	> 100	> 100	89.7	> 100	> 100	> 100	> 100	–	> 100	> 100	> 100	> 100	63.5	> 100
C/C(CC(=O)Nc1cc(C)ccc1C)=N/N=C(N)N	–	> 100	> 100	–	> 100	> 100	> 100	> 100	> 100	> 100	> 100	> 100	> 100	> 100	> 100	> 100	–	–	–	–
OC[P+](CO)(CO)C12CC3CC(CC(C3)C1)C2	> 100	> 100	–	> 100	> 100	> 100	> 100	> 26	> 100	> 100	59.2	> 100	> 100	–	> 100	35.4	> 100	> 100	> 100	> 100
O=[N+]([O-])c1cc([N+](=O)[O-])c(/C=C/c2ccc(Cl)c(Cl)c2)cc1/C=C/c1ccc(Cl)c(Cl)c1	> 100	81.9	96.4	43.1	> 100	66.3	51.1	60.3	> 100	> 100	50.3	81	–	> 100	35.7	49.2	–	–	–	–
C=CCN1COc2c(cc3c4c(cccc24)C(=O)O3)C1	> 100	> 10	> 100	35.5	92	> 100	> 100	39.1	> 100	39	97.1	> 100	36.7	–	> 100	50.3	–	–	–	–
COC(=O)c1ccccc1CC(Cc1ccc2c(c1)CCC2)C(=O)OC (stereo not drawn)	> 100	> 100	–	> 100	> 100	> 100	> 100	> 100	> 100	> 100	> 100	> 100	> 100	–	84.1	> 100	> 100	> 100	> 100	> 100
CCOP12(OCC)NC(=O)OC1(C(F)(F)F)c1ccccc1O2 (stereo not drawn)	> 100	> 100	> 100	> 100	–	> 100	> 100	> 100	–	> 100	–	> 100	> 100	> 100	> 100	> 100	–	–	–	–
O=C1C=CC2(C=C1)CCNC1=C2C(=O)c2ccccc2C1=O	> 100	> 100	> 100	> 100	> 100	> 100	> 100	> 100	> 100	> 100	> 100	> 100	> 100	–	> 100	> 100	–	–	–	–
C[Si](C)(N[Si](C)(C)OCCc1ccccc1)OCCc1ccccc1	> 100	> 100	–	> 100	> 100	> 100	> 100	> 100	> 100	> 100	> 100	> 100	> 100	–	> 100	> 100	> 100	> 100	> 100	> 100
O=C1NC(=O)C(C(=O)C(=O)Nc2ccc(Cl)cc2Cl)C(=O)N1	> 100	> 100	–	–	> 100	–	> 100	> 100	> 100	> 100	> 100	> 100	> 100	> 100	> 100	> 100	–	–	–	–
O=c1c2ccccc2nc(/C=C(\O)c2ccncc2)n1-c1ccc(Cl)cc1	> 100	> 100	–	> 100	> 100	> 100	> 100	> 100	–	> 100	> 100	> 100	> 100	> 100	> 100	> 100	–	–	–	–
Cc1nn2c(nc1=O)sc1ccc3ccccc3c12	> 100	> 100	> 100	> 100	> 100	> 100	> 100	> 100	> 100	> 100	–	> 100	> 100	> 100	> 100	> 100	–	–	–	–
CNC(=O)NCCN1CC2CCC(CC2)C1	> 10	> 10	–	> 10	> 10	> 10	> 10	> 10	> 10	> 10	> 10	> 10	> 10	–	> 10	> 10	> 10	> 10	> 10	> 10
Cc1ccc(C(c2c(O)c3ccccc3n(-c3ccccc3)c2=O)c2c(O)c3ccccc3n(-c3ccccc3)c2=O)cc1	> 100	> 100	> 100	> 100	> 100	> 100	> 100	> 100	> 100	> 100	> 100	–	> 100	> 100	> 100	–	–	–	–	–
COC(=O)C1=C(OC(=O)/C(=C/c2ccccc2)c2ccc(Cl)cc2)C(C(=O)OC)[C@@]2(O)[C@@H](C(=O)OC)[C@H](C)C[C@@H]1[C@@H]2C(=O)OC (stereo partly drawn)	> 100	> 100	–	> 100	> 100	> 100	> 100	> 100	> 100	> 100	> 100	> 100	> 100	–	> 100	> 100	> 100	> 100	> 100	> 100
COC(=O)C(C)(C)[C@@H]1OC(=O)N(S(=O)(=O)c2c(C)cc(C)cc2C)[C@H]1C(C)C	> 100	> 100	–	> 100	> 100	> 100	> 100	> 100	> 100	> 100	> 100	> 100	> 100	–	> 100	84.5	> 100	> 100	> 100	> 100
C(=N\Nc1ccccc1)/c1nc2ccccc2nc1/C=N/Nc1ccccc1	48.4	30.6	–	36.4	> 78.6	34.3	41	29.5	25.3	31.6	–	30.5	25.7	42.7	35.4	> 100	–	–	–	–
Cc1occc1C(=S)Nc1ccc(Cl)c(/C=N/OC(C)(C)C)c1	45	30.6	–	31.8	43.3	32.4	32.3	49.9	34.2	49.8	47.8	28.5	27	–	33.4	51.5	31.7	33	37	42.6
